Assays:
[1] = system: Pancreatic Ductal Adenocarcinoma 03; test: Evaluation against early stage Pancreatic Ductal Adenocarcinoma 03 in female BDF1 mice (Table 4); format: in vivo, mouse
Excerpt: The higher dose requirement for compound 14e may be a disadvantage over compound 11b (Cage 14).

[2] = system: Mammary Adenocarcinoma 17/ADR; test: Evaluation against early stage Mammary Adenocarcinoma 17/ADR, C3H/He females (Table 3); format: in vivo; details: for % Body Wt Loss at Nadir / % T/C mass / Day of Nadir / Drug Deaths / Growth Delay / Log Kill / Median Tumor Mass on Day 9 (Range) / Tumor Free day-21 / Activity Rating: PO
[3] = Cage 2, PO, 120 mg/kg/inj 2×/day days 3–9, total 1680 mg/kg
[4] = Cage 3, PO, 60 mg/kg/inj 2×/day days 3–9, total 840 mg/kg
[5] = Cage 4, PO, 30 mg/kg/inj 2×/day days 3–9, total 420 mg/kg
[6] = IV, short, dose-intense schedule BID-1–3, 162 mg/kg total dose
[7] = Cage 14, IV, 48 mg/kg/inj QD 3–9, total 336 mg/kg
[8] = Cage 5, 145 mg/kg/inj QD-1–3 and 7–9, total 870 mg/kg
[9] = Cage 6, 90 mg/kg/inj QD-1–3 and 7–9, total 540 mg/kg
[10] = Cage 7, 55.8 mg/kg/inj QD-1–3 and 7–9, total 334.8 mg/kg
[11] = Cage 8, 34.6 mg/kg/inj QD-1–3, 145 mg/kg/inj QD-7–9, total 538.8 mg/kg

## CC(Oc1ccc(Oc2ccc3ccc(Cl)cc3n2)cc1)C(=O)N(C)C (stereo not shown) [Compound 14e, 2-{4-((7-Chloro-2-quinolinyl)oxy)phenoxy}propiondimethylamide]
[1]; [3]
  % Body Wt Loss at Nadir: +4.3%
  % T/C mass: 8.3%
  Day of Nadir: 9 days
  Drug Deaths: 0/5
  Growth Delay: 16.5 days
  Log Kill: 2.5
  Median Tumor Mass on Day 14 (Range): 126
  Tumor Free day-37: 0/5
  toxicity observations: no evident toxicity
[1]; [4]
  % Body Wt Loss at Nadir: +3.3%
  % T/C mass: 15%
  Activity Rating: +++ (2.0–2.8)
  Day of Nadir: 10 days
  Drug Deaths: 0/5
  Growth Delay: 14.5 days
  Log Kill: 2.2
  Median Tumor Mass on Day 14 (Range): 234
  Tumor Free day-37: 0/5
[1]; [5]
  % Body Wt Loss at Nadir: 0%
  % T/C mass: 37%
  Day of Nadir: 9 days
  Drug Deaths: 0/5
  Growth Delay: 3.5 days
  Log Kill: 0.5
  Median Tumor Mass on Day 14 (Range): 567
  Tumor Free day-37: 0/5

## COc1c(Cl)ccc2ccc(Oc3ccc(OC(C)C(=O)O)cc3)nc12 (stereo not shown) [Compound 13a, reference compound]
[2]; [6]
  T/C: 7%
  log kill: 1.5

## CC(Oc1ccc(Oc2ccc3ccc(Cl)cc3n2)cc1)C(=O)O (stereo not shown) [Compound 11b]
[1]; [7]
  % Body Wt Loss at Nadir: −8.9%
  % T/C mass: 0%
  Activity Rating: +++ (2.0–2.8)
  Day of Nadir: 11 days
  Drug Deaths: 0/5
  Growth Delay: 17.5 days
  Log Kill: 2.6
  Median Tumor Mass on Day 14 (Range): 0
  Tumor Free day-37: 0/5
  day of full body weight recovery: ~15 days

## COc1c(Cl)ccc2ncc(Oc3ccc(OC(C)C(=O)N(C)C)cc3)nc12 (stereo not shown) [Compound 14c]
[2]; [8]
  % Body Wt Loss at Nadir: −5.8%
  % T/C mass: 20%
  Day of Nadir: 9 days
  Drug Deaths: 0/5
  Growth Delay: 5.5 days
  Log Kill: 1.5
  Median Tumor Mass on Day 9 (Range): 243
  Tumor Free day-21: 0/5
[2]; [9]
  % Body Wt Loss at Nadir: +1.4%
  % T/C mass: 31%
  Activity Rating: ++ (1.3–1.9)
  Day of Nadir: 9 days
  Drug Deaths: 0/5
  Growth Delay: 5.0 days
  Log Kill: 1.4
  Median Tumor Mass on Day 9 (Range): 369
  Tumor Free day-21: 0/5
[2]; [10]
  % Body Wt Loss at Nadir: +0.0%
  % T/C mass: 31%
  Activity Rating: + (0.7–1.2)
  Day of Nadir: 9 days
  Drug Deaths: 0/5
  Growth Delay: 3.5 days
  Log Kill: 1.0
  Median Tumor Mass on Day 9 (Range): 368
  Tumor Free day-21: 0/5
[2]; [11]
  % Body Wt Loss at Nadir: −1.4%
  % T/C mass: 55%
  Activity Rating: + (0.7–1.2)
  Day of Nadir: 11 days
  Drug Deaths: 0/5
  Growth Delay: 3.3 days
  Log Kill: 0.9
  Median Tumor Mass on Day 9 (Range): 660
  Tumor Free day-21: 0/5

Reference: patent US7109341B2, “Therapeutic amides” (Wayne State University, priority 2002, dated 2006)
